Key:
prostate cancer in rats = settings: controlled dose over 30 days vs equivalent or double daily doses of free peptide; cited from earlier work
estradiol levels = settings: female patients; provided peptide delivered so as to maintain a constant minimum blood level; cited from earlier work
[1] = in vitro release of deslorelin from the rods; assay type: physicochemical; settings: rods of 94% stearin, 5% deslorelin (on an active basis), 1% lecithin
Method: Typically, the formulation of the first aspect will release the peptide agonist or analogue, in vitro, into phosphate buffered saline (PBS: pH 7.3, prepared by dissolving 8.00 g of sodium chloride, 1.00 g di-sodium hydrogen phosphate anhydrous, 0.40 g sodium dihydrogen phosphate dihydrate (0.31 g if anydrous), and 0.05 g sodium azide in 1 litre of deionised water), at 37° C. at a rate of about 2-350 μg/day for at least 200 days but preferably for at least 300 days.
Stearin (supplied as free flowing beads of 1 mm or less in diameter made by Vandenberg Foods) and lecithin (supplied as a deep brown viscous syrup from R P Schearer) were hand mixed using a spatula in a small beaker. The deslorelin was then added and thoroughly mixed into the excipients. The mixed material was transferred to the barrel of a ram extruder that has a 1 mm nozzle attached and is equilibrated to 55° C. The ram extrusion pressure is 40 psi. The ram was attached and pressure applied until the product began to extrude. At this point the pressure was backed off and the product allowed to reach 55° C. The product was then extruded-3 g over a 30 second period. The resulting extrudate was allowed to cool and then broken up and re-extruded through a 1 mm nozzle. This step was included to ensure uniformity of content throughout the matrix. The 1 mm nozzle was then replaced with a 2.3 mm diameter nozzle. […]

male dogs = assay: testicular size in male dogs implanted with rods; assay type: in vivo, dog; settings: implanted rods of 94% stearin, 5% deslorelin, 1% lecithin
Method: (§1) Stearin (supplied as free flowing beads of 1 mm or less in diameter made by Vandenberg Foods) and lecithin (supplied as a deep brown viscous syrup from R P Schearer) were hand mixed using a spatula in a small beaker. The deslorelin was then added and thoroughly mixed into the excipients. The mixed material was transferred to the barrel of a ram extruder that has a 1 mm nozzle attached and is equilibrated to 55° C. The ram extrusion pressure is 40 psi. The ram was attached and pressure applied until the product began to extrude. At this point the pressure was backed off and the product allowed to reach 55° C. The product was then extruded-3 g over a 30 second period. The resulting extrudate was allowed to cool and then broken up and re-extruded through a 1 mm nozzle. This step was included to ensure uniformity of content throughout the matrix. The 1 mm nozzle was then replaced with a 2.3 mm diameter nozzle. The same product temperature equilibration procedure was conducted prior to extrusion. The product was then extruded and after cooling the long rods produced could be sectioned into lengths of the required weight.
(§2) The rods produced were implanted into male dogs using standard techniques.

plasma testosterone = assay: suppression of plasma testosterone levels in implanted dogs; assay type: in vivo, dog; settings: 5% deslorelin; for duration of suppression of testosterone levels: rods of 93% stearin, 2% lecithin, 0.5, 1 or 2 x 120 mg rod containing 6 mg deslorelin
Method: as §1, §2
Stearin beads (ADMUL PO 58 from Quest International Australasia Limited) and lecithin (Topcithin 300, Bronson & Jacobs, Australia) were hand mixed using a spatula in a small beaker. The deslorelin was then added and thoroughly mixed into the excipients. The material was transferred to the barrel of a ram extruder that has a 1 mm nozzle attached and is equilibrated to 55.8° C. The ram extrusion pressure is 40 psi. The ram was then attached and pressure applied until the product began to extrude. At this point the pressure was backed off and the product allowed to reach 55.8° C. The product was then extruded-3 g over a 30 second period. The resulting extrudate was allowed to cool and then broken up before re-extruding the mixed granulation through the 1 mm nozzle at 58.3° C. and into an injectable mould that generates a finished rod product that is 2.3 mm in diameter and approximately 25 mm long. […]

[2] = test system: advanced prostatic cancer; settings: monthly subcutaneous injections, advanced prostatic cancer patients; cited from earlier work

For “5-oxo-L-prolyl-L-histidyl-L-tryptophyl-L-seryl-L-tyrosyl-D-tryptophyl-L-leucyl-L-arginyl-L-prolylglycinamide. [triptorelin]”, the “suppression of prostate tumour weight, microencapsulated form versus daily subcutaneous free peptide” value (prostate cancer in rats) is listed as “more effective” and the “suppression of serum testosterone levels, microencapsulated form versus daily subcutaneous free peptide” value (prostate cancer in rats) is listed as “more effective”.
In the case of `CCNC(=O)[C@@H]1CCCN1C(=O)[C@H](CCCN=C(N)N)NC(=O)[C@H](CC(C)C)NC(=O)[C@@H](Cc1c[nH]c2ccccc12)NC(=O)[C@H](Cc1ccc(O)cc1)NC(=O)[C@H](CO)NC(=O)[C@H](Cc1c[nH]c2ccccc12)NC(=O)[C@H](Cc1cnc[nH]1)NC(=O)[C@@H]1CCC(=O)N1` [deslorelin, [6-D-tryptophan-9-(N-ethyl-L prolinamide)-10-deglycinamide]], the “suppression of estradiol levels” value (estradiol levels) is listed as “effective”, the “duration of release of deslorelin from the rods in vitro” value [1] is listed as “up to 250 days” and the “duration of continued decline in testicular size” value (male dogs) is listed as “at least 5 months”. The “duration of suppression of testosterone levels” value (plasma testosterone; bitches) was “at least 5 months”, the “duration of suppression of testosterone levels” value (plasma testosterone; dogs (male)) was at least 12 months and the “duration of suppression of plasma testosterone levels” value (plasma testosterone; male dogs, implanted rods of 94% stearin, 1% lecithin) was “at least 4 months”.
In the case of `CC(C)C[C@H](NC(=O)[C@@H](COC(C)(C)C)NC(=O)[C@H](Cc1ccc(O)cc1)NC(=O)[C@H](CO)NC(=O)[C@H](Cc1c[nH]c2ccccc12)NC(=O)[C@H](Cc1cnc[nH]1)NC(=O)[C@@H]1CCC(=O)N1)C(=O)N[C@@H](CCCNC(=N)N)C(=O)N1CCC[C@H]1C(=O)NNC(N)=O` [goserelin, 3-[5 oxo-L-prolyl-L-tryptophyl-L-seryl-L-tyrosyl-(3-O-tert-butyl)-D-seryl-L-leucyl-L-arginyl-L-prolyl] cabazamide acetate.], the “efficacy compared with orchiectomy” value [2] is listed as “as effective as orchiectomy” and the tolerability [2] is listed as “well tolerated”.
